Measured values taken from patent US12109327B2, “Scaffolds from self-assembling tetrapeptides support 3D spreading, osteogenic differentiation and angiogenesis of mesenchymal stem cells” (KING ABDULLAH UNIVERSITY OF SCIENCE AND TECHNOLOGY, priority 2020, dated 2024).
One block for each substance: values may come before it. Non-standard residues stand in square brackets, D forms with d. Cha = N[C@@H](CC1CCCCC1)C(=O)O

Legend:
[1] = Oscillatory rheological test of peptide hydrogel stiffness (storage modulus G′); assay type: physicochemical; conditions: for Storage modulus: 1 rad/s, 0.1% strain
Experimental: Therefore, in one embodiment, the mechanical stiffness of each peptide hydrogel is assessed by the storage modulus (G′) at different concentrations.
The oscillatory rheological test was performed to determine the mechanical properties of the peptide hydrogels. The peptide hydrogels were measured on a TA Ares G2 rheometer with an 8 mm parallel-plate geometry and a 1.5 mm gap distance at a temperature of 22° C. All of the hydrogels were made inside a Sigmacote®-coated glass ring with 9 mm inner diameter 19 h prior to measurement. Six replicates with a volume of 150 μL were prepared for each sample. […]

[2] = Vial inversion test: gelation time and critical gelation concentration; assay type: physicochemical; conditions: for critical gelation concentration (CGC): aqueous solution, 1× PBS
Experimental: In one embodiment, an instant hydrogel formation can be observed when PBS buffer is added to the peptide solution. In one embodiment, the gelation time is determined using a vial inversion test performed at different peptide concentrations in 1×PBS to meet physiological conditions. FIG. 13 compares the gelation time of IVFK and IVZK at different concentration.
The lyophilized peptide powders were dissolved in Milli-Q® water by vortexing into a clear solution at room temperature. Then, 10× phosphate-buffered saline (PBS) was added to the aqueous peptide solution at a final volume ratio of peptide solution to 10×PBS of 9:1. The vial inversion test was performed with different peptide concentrations to find the critical gelation concentration (CGC). To study the spatial structure of the peptide solution during the assembly process, two-dimensional (2D) NMR was performed using Bruker Avance III 600 MHz. Furthermore, scanning electron microscopy (SEM) was performed to visualize the morphology of the self-assembled nanofibers.

[3] = tested on: BM-MSCs; assay: Quantitative RT-PCR of osteogenic genes; assay type: cell-based, human
Experimental: Real-time polymerase chain reaction (PCR) values of the BM-MSC gene expressions of the bone morphogenetic protein (BMP-2) (FIG. 37), bone sialoprotein 2 (IBSP) (FIG. 35), osteopontin (OPN) (FIG. 38), osterix (OSX) (FIG. 39), and RUNX2 (FIG. 36) are evaluated after 30 days of culture. […] In FIGS. 35-39, * mens p<0.05 and ** means p<0.001, indicating statistical significance.
The BM-MSCs were cultured on different scaffolds with an osteogenic medium for 4 weeks. Total RNA was extracted using the TRIzol™ reagent. RNA concentration and purity were measured using a NanoDrop® 8000 spectrophotometer (Thermo Fisher®). Complementary DNA (cDNA) was synthesized using the ImProm-II Reverse Transcription System. Primer sequences were taken from previously published studies and are summarized in below. Relative quantification was performed using the comparative CT (2-ΔΔCT) and normalized against glyceraldehyde 3-phosphate dehydrogenase (GAPDH), which was used as a housekeeping gene to calculate the fold change in gene expression. BM-MSCs on a 2D culture using basal media were used as controls.

[4] = tested on: MSCs; assay: SEM of cell-matrix interaction; assay type: cell-based, human; conditions: after 14 days of culture
Experimental: Scale bars are 5 and 10 μm, in the left and right panels respectively.
SEM was also used to determine the cell-matrix interaction. First, the cells encapsulated in hydrogels were fixed in 2.5% glutaraldehyde for overnight (4° C.) and then washed using PBS. The samples were subsequently incubated in 1% osmium tetroxide for one hour and washed with water. Afterwards, the dehydration was done by immersing them in increasing concentrations of ethanol: 30, 50, 70, 90 and 100%, 15 min each step. Then, the samples were processed in critical point dryer. The dried samples were then mounted and coated with 5 nm Ir thickness.

[5] = tested on: BM-MSCs; assay: Alamar Blue cell viability assay; assay type: cell-based, human; conditions: compared to controls (2D and Matrigel)
Experimental: In one embodiment, the hydrogels are screened for biocompatibility, cell attachment, and proliferation. Different concentrations of the peptides are tested for their biocompatibility of the cells within the constructs. […] Control is the cells incubated for 48 h without peptides.
The hBM-MSCs were cultured in T75 flasks and incubated in a CO2 incubator maintained at 37° ° C. with 5% CO2. Culture media were replaced every 2-3 days until the cells reached 80% confluency. Confluent cells were trypsinized and subcultured, and cells at passage 3-6 were used for the study. For the 3D culture, different peptides were sterilized by exposure to UV light for 30 min. Then, 200 μL of 3D constructs in the 48-well plate was formed by mixing the peptide solution (IVZK=3 mg/mL (5.42 mM); IVFK=4 mg/mL (7.31 mM)) with 40,000 cells suspended in 2×PBS. Culture plates were incubated for 5 min at 37° C., and the complete medium was added carefully to the culture plates. […] The morphology, cell proliferation, and mineralization of the cells in each scaffold were analyzed and compared. […]
A volume of 10 μL of Alamar blue stock solution was added to 100 μL of media in each well. […] The fluorescence was measured at an excitation wavelength of 530 nm, and the emission at 590 nm. The viability percentage was calculated against the control (2D).

[6] = tested on: BM-MSCs; assay: Alizarin red staining of mineralization; assay type: cell-based, human
Excerpt: Alizarin red staining (ARS) is used to detect calcium deposition. The BM-MSCs cultured in the different scaffolds in the osteogenic medium are stained by Alizarin red to confirm the mineralization process during osteogenic differentiation (FIGS. 4b and S11b). […] The scale bar in FIGS. 31 and 32 is 100 μm. […] This indicates the presence of calcium deposits.
After 14 days of culture, the media were removed and the cells were washed three times with PBS, fixed with 4% paraformaldehyde, and incubated for 15 min at room temperature.
After 14 days of culture, the media was removed and then, the cells were washed three times with PBS and then fixed with 4% paraformaldehyde and the cells incubated for 15 minutes at room temperature. Then, the cells were washed three times with Milli-Q® water. Then the Milli-Q® water was removed and 1 mL of 40 mM Alizarin Red Staining (pH=4.2) was added to each well. The scaffolds were incubated at room temperature for 20-30 min with gentle shaking. […] For the quantification of Alizarin Red Staining, 100 μL of 10% acetic acid was added to each well in a 48-well plate and incubated at room temperature for 30 minutes with gentle shaking. […] Finally, 50 μL of each tube was transferred to a 96-well plate, and the absorbance at 405 nm was read with a plate reader (PHERAstar® FS, Germany)

[7] = tested on: BM-MSCs; assay: Osteocalcin immunostaining, confocal microscopy; assay type: cell-based, human
Excerpt: (§1) In one embodiment, the BM-MSCs differentiate to the osteogenic lineage. The expression of osteocalcin is stained and imaged after 3 weeks of culture in osteogenic medium using confocal microscopy, as shown in FIG. 33. FIG. 33 is confocal images showing the expression of osteocalcin stained in green, and the cell nuclei stained in blue using DAPI. The scale bar in FIG. 33 is 100 μm. […] Additionally, the levels of alkaline phosphatase (ALP), an early osteogenic marker expressed by osteoblast cells, are also measured to confirm the commitment of BM-MSCs toward the osteogenic lineage. […] Furthermore, the ALP activity increased with time during the initial 2 weeks as an indicator of osteogenic differentiation. In FIG. 34, * means p<0.05, indicating statistical significance.
Immunostaining was performed after each time point of culture. Briefly, cells were fixed by 4% paraformaldehyde solution for 30 min and incubated in a cold cytoskeleton buffer (3 mM MgCl2, 300 mM sucrose, and 0.5% Triton X-100 in PBS solution) for 5 min to permeabilize the membranes of the cells. The permeabilized cells were incubated in a blocking buffer solution, 5% fetal bovine serum (FBS), 0.1% Tween-20, and 0.02% […] in PBS for 30 min. […]

[8] = tested on: BM-MSCs; assay: Alkaline phosphatase (ALP) assay; assay type: cell-based, human
Excerpt: as §1
Alkaline phosphatase (ALP) was measured after 1 and 2 weeks of culture using an alkaline phosphatase substrate kit. At the end of each culture time, the scaffolds were washed by PBS and cells were lysed using 1% Triton X-100. Then, 80 μL of the cell lysate mixture was added to 50 μL of the para-nitrophenylphosphate (pNPP) substrate (5 mM) and incubated at room temperature for 2 h. The reaction was inhibited by the addition of a stop solution, and the absorbance was measured at 405 nm using a multimode plate reader (PHERAstar® FS, Germany).

[9] = tested on: HUVECs; assay: In vitro angiogenesis study; assay type: cell-based, human
Experimental: When bone deficiency occurs, it often causes blood vessel damage. Blood vessels provide the necessary components to repair the region of bone defects by transferring oxygen and nutrients.^107, 108 In one embodiment, the capability of IVFK and IVZK hydrogels to support angiogenesis is also evaluated using HUVECs and compared with collagen, which is an essential component of the ECM and is known to support the angiogenesis of endothelial cells,^23 because the capillary system is a crucial component in bone regeneration. Viability of HUVECs in IVZK scaffold after culturing for 24 h can be observed the bright field image as shown in FIG. 45 and confocal images as shown in FIG. 46. In FIG. 46, live cells are stained in green by Calcein-AM, while dead cells are stained red by Ethidium homodimer. In FIGS. 45 and 46, the scale bar is 100 μm. Furthermore, the angiogenesis ability of IVZK scaffold is also measured by the vessels junctions (FIG. 48), number of nodes (FIG. 49) and, in total vessels length (FIG. 47) for 5 different microscopic pictures. […] In FIG. 50, the scale bar is 100 μm.
Peptide hydrogel or collagen was placed in a 24-well plate, and human umbilical vein endothelial cells (HUVECs) at 40,000 cells/well were added on top of the peptide gel or collagen. Cells were cultured in endothelial growth media for 24 h. Cells were then investigated using an inverted microscope, and images were analyzed by ImageJ using the Angiogenesis Analyzer.

[10] = hydrogel around 20 kPa (4 mg/mL) versus 50 kPa (8 mg/mL)
[11] = 24 h, versus collagen positive control

Substance: Ac-Ile-Val-Cha-Lys-NH2 (Ac-IV[Cha]K-NH2; not fully specified; printed as Ac-Ile-Val-Cha-Lys-NH2) [IVZK, nonaromatic self-assembling tetrapeptide (Z = cyclohexylalanine) forming hydrogel scaffold]
- G′ value, IVZK versus IVFK ([1]; at the same concentration): higher G′ value compared to IVFK
- Storage modulus ([1]; peptide hydrogel 2 mg/mL): 10.00 ± 0.12 kPa
- Storage modulus ([1]; peptide hydrogel 3 mg/mL): 17.21 ± 1.38 kPa
- Storage modulus ([1]; peptide hydrogel 4 mg/mL): 29.77 ± 1.19 kPa
- Storage modulus ([1]; peptide hydrogel 6 mg/mL): 43.03 ± 2.81 kPa
- Storage modulus ([1]; peptide hydrogel 8 mg/mL): 75.21 ± 4.08 kPa
- critical gelation concentration (CGC) [2]: 2 mg/mL
- gelation time ([2]; different peptide concentrations in 1×PBS, IVZK versus IVFK): less time to form the hydrogel, compared to IVFK
- OPN gene expression ([3]; after 30 days of culture): downregulated
- cell morphology by SEM [4]: elongated spindlelike morphology

- ALP activity ([8]; after 7 days in osteogenic medium, versus collagen, p<0.05): Significantly higher ALP activity
- ALP release [8, 10]: higher ALP release than that at 50 kPa
Substance: Ac-Ile-Val-Phe-Lys-NH2 (Ac-IVFK-NH2) [aromatic self-assembling tetrapeptide forming hydrogel scaffold]
- stiffness ([1]; peptide concentration 4 mg/mL): around 20 kPa
- stiffness ([1]; peptide concentration 8 mg/mL): ~50 kPa
- Storage modulus ([1]; peptide hydrogel 2 mg/mL): 0.54 ± 0.06 kPa
- Storage modulus ([1]; peptide hydrogel 3 mg/mL): 7.03 ± 0.19 kPa
- Storage modulus ([1]; peptide hydrogel 4 mg/mL): 23.40 ± 0.88 kPa
- Storage modulus ([1]; peptide hydrogel 6 mg/mL): 35.79 ± 0.95 kPa
- Storage modulus ([1]; peptide hydrogel 8 mg/mL): 51.79 ± 4.73 kPa
- critical gelation concentration (CGC) [2]: 2 mg/mL
- cell growth (Alamar Blue) [5]: significant increase in cell growth compared to both controls
- calcium content (Alizarin red-S quantification) [6, 10]: significantly higher calcium content than that at 50 kPa
- Alizarin red-S (ARS) staining of mineral deposits ([6]; osteogenic medium, compared to the other scaffolds): most intense ARS staining
- osteocalcin expression ([7]; 3 weeks in osteogenic medium): comparable to those cultured in the collagen control group
- osteocalcin expression ([7]; 20 kPa scaffold compared to the others): more intense
- expression of osteogenic genes OPN and BMP-2 ([3]; 20 kPa hydrogel versus 50 kPa scaffold): able to support cell differentiation much better than the 50 kPa scaffold
- IBSP gene expression level ([3]; after 30 days of culture): highest
- OPN gene expression ([3]; after 30 days of culture): upregulated
- OSX expression level ([3]; after 30 days of culture): low
- Runx2 gene expression ([3]; after 30 days of culture): higher
- junctions [9, 11]: no significant difference
- nodes [9, 11]: no significant difference
- total length of tubes [9, 11]: no significant difference
- network formation of HUVECs ([9]; after 24 h of culture): forms dense network structures
- cell morphology by SEM [4]: elongated spindlelike morphology
